Test results: publication PMC12711892, “A genome-wide CRISPR screen identifies GRA38 as a key regulator of lipid homeostasis during Toxoplasma gondii adaptation to lipid-rich conditions” (Nature Communications, 2025)

Molecular target: T1, GRA38-6xHis (Toxoplasma gondii, UniProt A0A7J6JXD8)
T1 construct: gene TGRH88_051660; signal peptide (first 23 residues) removed; C-terminal 6xHis in pET-29b(+), codon-optimised, E. coli BL21; tag kept
Assay: malachite green phosphate release assay (PAP activity)
Type: biochemical
Conditions: read-out: % inhibition at 1 mM

T1 sequence (A0A7J6JXD8 entry or part of it): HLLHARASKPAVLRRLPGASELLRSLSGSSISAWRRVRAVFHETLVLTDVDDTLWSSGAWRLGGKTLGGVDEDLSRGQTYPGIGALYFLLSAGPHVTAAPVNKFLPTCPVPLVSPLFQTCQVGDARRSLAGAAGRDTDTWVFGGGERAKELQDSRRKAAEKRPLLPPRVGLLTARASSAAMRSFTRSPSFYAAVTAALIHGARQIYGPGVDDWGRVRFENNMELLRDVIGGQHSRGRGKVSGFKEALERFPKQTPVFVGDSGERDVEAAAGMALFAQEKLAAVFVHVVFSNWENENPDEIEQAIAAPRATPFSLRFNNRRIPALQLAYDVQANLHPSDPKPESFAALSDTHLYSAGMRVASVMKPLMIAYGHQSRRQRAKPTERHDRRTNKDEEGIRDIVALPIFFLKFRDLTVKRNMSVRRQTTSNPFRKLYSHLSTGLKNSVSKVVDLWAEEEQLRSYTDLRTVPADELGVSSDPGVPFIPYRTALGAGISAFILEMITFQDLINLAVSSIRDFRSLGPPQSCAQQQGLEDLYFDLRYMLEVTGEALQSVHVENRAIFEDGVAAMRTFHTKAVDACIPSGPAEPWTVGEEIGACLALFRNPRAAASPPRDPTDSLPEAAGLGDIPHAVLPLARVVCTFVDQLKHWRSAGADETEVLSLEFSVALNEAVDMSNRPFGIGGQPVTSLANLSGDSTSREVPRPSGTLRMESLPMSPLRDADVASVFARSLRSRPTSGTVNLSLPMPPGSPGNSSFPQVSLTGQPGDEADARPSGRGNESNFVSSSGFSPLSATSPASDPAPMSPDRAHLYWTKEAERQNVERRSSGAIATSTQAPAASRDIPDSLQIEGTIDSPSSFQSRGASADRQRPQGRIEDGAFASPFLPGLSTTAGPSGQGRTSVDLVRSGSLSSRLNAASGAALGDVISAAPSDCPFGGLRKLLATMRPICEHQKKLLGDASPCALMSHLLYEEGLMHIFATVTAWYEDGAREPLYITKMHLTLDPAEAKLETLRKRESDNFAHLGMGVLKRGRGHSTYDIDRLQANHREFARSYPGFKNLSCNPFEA

With `O=CC(=O)c1ccccc1` [phenylglyoxal] the inhibition at 1000 µM was 45%.
